Source: US12410163B2, “Compounds as GLP-IR agonists” (Terns Pharmaceuticals, Inc., priority 2022, dated 2025)

Tests used:
[1] = Metabolic stability in hepatocytes; type: in vitro ADME; details: cryopreserved human hepatocytes (suspension), 1×10^6 cells/mL, intrinsic clearance, read-out: hHep CLint
Procedure: (§1) Test compounds are incubated in human hepatocytes and stability is assessed from the substrate […] approach. Test compounds are dissolved in dimethyl sulfoxide (DMSO) to create a 10 mM Stock, and then further diluted to create a 1000× Working Stock of 1 mM with DMSO in 96-well plates for test compounds and the positive control (midazolam). Vials containing cryopreserved hepatocytes are removed from the liquid nitrogen tank and immediately immersed in a 37° C. water bath. The vials are shaken gently until the contents had thawed and were then immediately emptied into 48 mL of pre-warmed HT Medium in a 50 mL conical tube. Cells remaining in the vial are resuspended with 1.0 mL of pre-warmed HT Medium and added to the conical tube. The tube is capped and then gently inverted several times to resuspend the hepatocytes. The cell suspension is centrifuged at 50×g at room temperature for 5 minutes and the supernatant discarded. The cell pellet is loosened by gently swirling the centrifuge tube and is re-suspended in 4 mL of warm Dulbecco's Modified Eagle medium (DMEM). Cell density is determined by a cell counter by Nexcelom, and DMEM medium is added to obtain a target density of 1×10^6 cells/mL. The assay is carried out in 96-well microtiter plates. Test Compounds are incubated at 1 μM with 1×10^6 cells/mL hepatocytes in DMEM for 0, 30, 60, 120 and 240 minutes. The incubation is carried out with gentle shaking at 37° C. under a humid atmosphere of 95% air/5% CO2. The volume of the incubation mixture is 37 μL with a final 0.1% DMSO. At each of the time points, the incubation is stopped by adding 150 μL quenching solution (100% acetonitrile, 0.1% formic acid containing bucetin as an internal standard for positive ESI mode). Subsequently, the mixtures are vortexed for 20 min and centrifuged at 4,000 RPM at 10° C. The supernatant (80 μL) is transferred to a clean 96-well plate and analyzed by LC-MS/MS. Midazolam at 1 μM with a final 0.1% DMSO is included as a positive control to verify assay performance. The percent parent remaining, intrinsic and predicted hepatic clearance and t1/2 are calculated. All samples are analyzed by LC-MS/MS using an AB Sciex API 4000 instrument, coupled to a Shimadzu LC-20AD LC Pump system. Separation is achieved using a Waters Atlantis T3 dC18 reverse phase HPLC column (20 mm×2.1 mm) at a flow rate of 0.5 mL/min. The mobile phase consisted of 0.1% formic acid in water (solvent A) and 0.1% formic acid in 100% acetonitrile (solvent B). Elution conditions are detailed below.
(§2) The ion optics of each test compound are optimized for their declustering potential (DP), […] (CE), collision-cell exit potential (CXP) and used in a selected ion monitoring experiment in the positive ion mode. The peak area ratio of each test compound to internal standard is then evaluated for stability. The extent of metabolism is calculated based on the disappearance of the test compound, compared to its initial concentration. The initial rates of clearance of the test compound are calculated using the linear regression plot of semi-log % remaining of the compound versus time. The elimination rate constant (k) of the linear regression plot is then used to determine t1/2 and the intrinsic clearance (CLint) using the following formula, where Chepatocyte (million cells/mL) is the cell density of the incubation: k=−slope t1/2=0.693/k CLint=k/Chepatocyte
(§3) Test compounds were incubated in human hepatocytes and stability was assessed from the substrate […] approach. Test compounds were dissolved in dimethyl sulfoxide (DMSO) to create a 10 mM Stock, and then further diluted to create a 1000× Working Stock of 1 mM with DMSO in 96-well plates for test compounds and the positive control (midazolam). Vials containing cryopreserved hepatocytes were removed from the liquid nitrogen tank and immediately immersed in a 37° C. water bath. […]

human hepatocytes = experiment: Metabolic stability in hepatocytes; type: in vitro ADME; details: 1 μM, 1×10^6 cells/mL, 0-240 min
Procedure: as §1, §2, §3

human GLP-1R receptor = molecular target: T1, human GLP-1R receptor (Homo sapiens, UniProt P43220); experiment: GLP-1R low expression cell assay (cAMP TR-FRET, CHO-K1_hGLP-1Rlow_clone10); type: cell-based; details: CHO-K1_hGLP-1Rlow_clone10 cells, percent activation relative to control GLP-1 peptide
T1 construct: expressed in transfected cells
T1 sequence (P43220 24-463): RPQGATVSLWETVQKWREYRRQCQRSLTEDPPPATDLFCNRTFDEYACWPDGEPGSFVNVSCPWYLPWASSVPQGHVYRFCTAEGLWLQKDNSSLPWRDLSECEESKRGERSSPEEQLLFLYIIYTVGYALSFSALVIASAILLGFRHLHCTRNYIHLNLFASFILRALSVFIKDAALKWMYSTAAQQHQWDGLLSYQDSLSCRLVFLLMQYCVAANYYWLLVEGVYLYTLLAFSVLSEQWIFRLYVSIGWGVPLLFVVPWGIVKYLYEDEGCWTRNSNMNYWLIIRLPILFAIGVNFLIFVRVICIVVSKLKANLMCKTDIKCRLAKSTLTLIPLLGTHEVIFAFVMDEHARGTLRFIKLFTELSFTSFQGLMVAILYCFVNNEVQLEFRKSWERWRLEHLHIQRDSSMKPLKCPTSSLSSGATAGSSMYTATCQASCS
Procedure: Stable cell lines expressing high and low GLP-1R surface expression are generated in CHO-K1 cells transfected (Fugene 6) with a puromycin selectable DNA plasmid encoding human GLP-1R receptor (accession number: NM_002062.5) under control of an EF1A promoter. Transfected cells are seeded into 24-well plates (9,000 cells/well) containing complete medium and incubated in a humidified incubator at 37° C. with 5% carbon dioxide. After overnight incubation, medium is replaced with complete medium supplemented with puromycin (6 μg/mL) and refreshed every 2-3 days to select for stably transfected cells. Individual pools of selected cells are expanded prior to analysis for responsiveness to GLP-1 control peptide using a TR-FRET assay to detect cAMP (LANCE Ultra cAMP Assay, Perkin Elmer). Briefly, cells are collected in Versene solution, plated in 384-well plates (1,000 cells/well) and combined with serially diluted GLP-1R control peptide (10 nL) using an acoustic dispenser (ECHO). Plates are incubated for 30 minutes at 25° C. prior to the addition of EU-cAMP tracer (5 μL) and Ulight-anti-cAMP (5 μL) reagents to each well, followed by 15 minutes incubation at 25° C. TR-FRET signal is detected using an EnVision Multimode Plate Reader (excitation=320 nm; emission=615 and 655 nm). Dose-response curves are used to generate EC50 values as a measure of responsiveness to the GLP-1R control peptide. Selected cell lines are monitored for responsiveness over multiple passages to ensure stability. […] Briefly, GLP-1R expression is analyzed by flow cytometry using a fluorescein-labeled Exendin-4 peptide fluorescent probe (FLEX). Cells are harvested in Versene solution and washed 3-times with PBS+0.5% BSA before incubation with FLEX reagent (10 μM) for 2 hours at room temperature. After incubation, cells are washed 3-times in PBS+0.5% BSA before final resuspension in PBS prior to analysis by flow cytometry to measure FLEX mean fluorescence intensity (MFI) as a measure of GLP-1R expression on the cell surface.
For compound testing in the CHO-K1_hGLP-1Rlow_clone10 cell lines, cells are seeded in 384-well plates (1,000 cells/well). Test compounds are serially diluted in DMSO (10-point, 3-fold dilution), added to wells using an ECHO dispenser (10 nL/well) and plates are centrifuged for 1 min and agitated for 2 min at room temperature prior to 30-minute incubation at 25° C. After incubation, Eu-cAMP (5 μL) and Ulight-anti-cAMP (5 μL) reagents are added to each well, followed by centrifugation for 1 minute, agitation for 2 minutes at room temperature, and final incubation of the plates at 25° C. for 15 minutes. Plates are read using an EnVision microplate reader (excitation=320 nm; emission=615 and 655 nm). Dose-response curves are generated from duplicate wells based on percent activation calculated relative to a control GLP-1 peptide agonist that was run in parallel. EC50 values are determined by fitting percent activation as a function of compound concentration using the Hill equation (XLfit).
Stable cell lines expressing high and low GLP-1R surface expression were generated in CHO-K1 cells transfected (Fugene 6) with a puromycin selectable DNA plasmid encoding human GLP-1R receptor (accession number: NM_002062.5) under control of an EF1A promoter. Transfected cells were seeded into 24-well plates (9,000 cells/well) containing complete medium and incubated in a humidified incubator at 37° C. with 5% carbon dioxide. After overnight incubation, medium was replaced with complete medium supplemented with puromycin (6 μg/mL) and refreshed every 2-3 days to select for stably transfected cells. Individual pools of selected cells were expanded prior to analysis for responsiveness to GLP-1 control peptide using a TR-FRET assay to detect cAMP (LANCE Ultra cAMP Assay, Perkin Elmer).

CLint scaled at 1 μM [1] [mL/min/kg] | hHep t1/2 (human hepatocytes) [h] | EC50 (human GLP-1R receptor) [nM] | Structure (SMILES)
5.01 | > 8 | 50 to 100 | N#Cc1ccc(COc2cccc(N3CCN(Cc4nc5ccc(C(=O)O)cc5n4C[C@@H]4CCO4)[C@H]4CC43)n2)c(F)c1 (single isomer, unassigned) [Compound 42]
5.01 | > 8 |  | CCn1nncc1Cn1c(CN2CCN(c3cccc(OCc4ccc(C#N)cc4F)n3)C3C[C@@H]32)nc2ccc(C(=O)O)cc21 (some centres unmarked) [Compound 44, 2-((5-(6-((4-Cyano-2-fluorobenzyl)oxy)pyridin-2-yl)-2,5-diazabicyclo[4.1.0]heptan-2-yl)methyl)-1-((1-ethyl-1H-1,2,3-triazol-5-yl)methyl)-1H-benzo[d]imidazole-6-carboxylic Acid]
5.01 | > 8 | > 100 | N#Cc1ccc(COc2ccnc(N3CCN(Cc4nc5ccc(C(=O)O)cc5n4Cc4cncs4)[C@H]4C[C@H]43)n2)c(F)c1 [Compound 19, 2-((5-(4-((4-Cyano-2-fluorobenzyl)oxy)pyrimidin-2-yl)-2,5-diazabicyclo[4.1.0]heptan-2-yl)methyl)-1-(thiazol-5-ylmethyl)-1H-benzo[d]imidazole-6-carboxylic Acid]
